According to patent publication US12097210B2, “Concomitant administration of glucocorticoid receptor modulators and CYP3A inhibitors” (Corcept Therapeutics, Inc., priority 2017, dated 2024):

Experiments:
[1] = Example 2: safety (adverse events, physical examinations, laboratory tests); format: in vivo, human
Description: Safety was assessed by spontaneously reported adverse events, physical examinations, and routine clinical laboratory tests. Adverse event data were tabulated. Physical findings and laboratory test results were listed by subject.

[2] = Example 3: effect of ketoconazole 200 mg twice daily on PK of mifepristone 600 mg once daily and metabolites, with food; format: in vivo, human
Description: (§1) A single dose of ketoconazole was administered on Day −1.
The study was a two period study design.
Concentrations of RU 42633 and RU 42848 were similar on Day 17 and Day 12.

[3] = Example 3: cross-study comparison of exposure with historic study of 1200 mg mifepristone OD; format: in vivo, human
[4] = Example 3: safety (adverse events, laboratory tests, vital signs, ECGs); format: in vivo, human
Description: as §1

[5] = Example 1: safety (adverse events, physical examinations, clinical laboratory tests, ECG); format: in vivo, human; conditions: mifepristone 300 mg single dose with ketoconazole for 14 days
Description: Subjects in both cohorts returned to the study center on Day 15 for safety monitoring, and completion of the Termination Visit procedures, followed by discharge from the study. Safety was assessed by spontaneously reported adverse events, physical examinations, and routine clinical laboratory tests. To the extent possible, any adverse events deemed study drug-related and that were ongoing at the time of discharge from the study were followed-up to resolution or until a determination is made that the unresolved event was stable.

[6] = Example 1: effect of oral ketoconazole (400 mg OD or 200 mg BID) on plasma pharmacokinetics of a 300 mg single dose of mifepristone, fasted; format: in vivo, human; conditions: Keto 200 mg BID vs 400 mg OD
Excerpt: This study was an open-label study in healthy male subjects.
Healthy male volunteers between the ages of 18 to 45 years of age with a body mass index (BMI) ranging between 19 and 32 kg/m2 and a weight of at least 60 kg (132 lbs) were enrolled. Subjects had no clinically significant abnormal findings on the physical examination, ECG, blood pressure, heart rate, medical history, or clinical laboratory results during screening. The QTc interval at screening was less than 450 msec.
In cohort 1, six subjects received ketoconazole 400 mg OD for 14 days.
Subjects remained in the clinic on Days 2 and 3 to receive 400 mg OD oral ketoconazole fasted, and for safety evaluation and collection of blood pharmacokinetic (PK) samples. Subjects were discharged from the clinic on Day 4 following administration of 400 mg OD oral ketoconazole fasted, and returned to the clinic the mornings of Days 5 through 13 to receive 400 mg OD oral ketoconazole fasted.
In cohort 2, six subjects received ketoconazole 200 mg BID for 14 days. […] All 12 subjects completed the study. […]
Subjects in both cohorts returned to the study center on Day 15 for safety monitoring, and completion of the Termination Visit procedures, followed by discharge from the study. Safety was assessed by spontaneously reported adverse events, physical examinations, and routine clinical laboratory tests. […]

[7] = Examples 5-8: liver function of patient with excess cortisol on ketoconazole and reduced mifepristone dose; format: in vivo, human
clinical = conditions: male, human, in vivo
Description: This study was conducted in accordance with Good Clinical Practice under the guidance of an Institutional Review Board and in accordance with applicable local legal and regulatory requirements.
KORLYM® was supplied in 300 mg tablets for oral administration. Three or four tablets were administered once daily (OD) to provide either the 900 mg or 1200 mg per day dose.
Itraconazole was supplied • in 100 mg capsules for oral administration. Two capsules were administered once daily (OD) to provide the 200 mg per day dose.
All drug administrations were oral and were given after the morning meal.
The inclusion criteria required, among other criteria, that the subjects be healthy male subjects between the ages of 18 and 65, weigh more than 110 pounds, and have a body mass index (BMI) of 18 to 32 kg/m^2. The design included a Screening Period of up to 3 weeks (subjects were screened at a time between days −21 to −1 prior to the first treatment period), three 14-day treatment periods, and a Follow-Up (FU) Period of 14 days for safety observation.
Subjects meeting the inclusion criteria (n=22) were administered drug daily and blood samples were taken on the days indicated below during Periods 1-3 and on day 43 of the follow-up period.
Subjects presented at the Clinical Research Unit (CRU) after an 8-hour overnight fast, then predose PK samples were taken and other evaluations (predose electrocardiograms (ECGs), plasma cortisol and ACTH, serum chemistry tests) were performed. […] On the specific days indicated above, additional blood draws for determining 24-hour PK profiles were performed.
Pharmacokinetic (PK) parameters measured and computed included AUC (area under the concentration−time curve), AUC0-24 (AUC values from time 0 to 24 hours postdose), Cmax (maximum concentration), and Css (average steady-state concentration, calculated as AUC0-24/24).

[8] = Test: Day 17, 600 mg mifepristone OD + 200 mg Ketoconazole BID, Reference: Day 12, 600 mg mifepristone OD, geometric mean ratio
[9] = Test: Day 17, 600 mg mifepristone OD + 200 mg Ketoconazole BID, Reference: historic study Day 7, 1200 mg mifepristone OD alone, after 34% fat meal
[10] = mifepristone 600 mg OD Days 1-17, ketoconazole 200 mg BID Days 13-17

## CC#C[C@]1(O)CC[C@H]2[C@@H]3CCC4=CC(=O)CCC4=C3[C@@H](c3ccc(N(C)C)cc3)C[C@@]21C [Mifepristone, 11β-(4-dimethylaminophenyl)-17β-hydroxy-17α-(1-propynyl)-estra-4,9-dien-3-one]
[1]; four subjects in Cohort 2 (600 mg OD)
  TEAEs considered possibly or probably related to mifepristone administration: dizziness, nausea, vomiting, dry mouth, and rash
[1]; twelve subjects, mifepristone 300 or 600 mg OD 8 days, ketoconazole 400 mg Day 8
  subjects experiencing at least 1 TEAE: 50%
[2]; 600 mg mifepristone daily with 200 mg ketoconazole twice daily vs mifepristone alone
  concentrations on Day 17 compared with Day 12: higher
[2]; FIG. 1, 600 mg mifepristone OD
  trough concentrations through the start of ketoconazole administration (Day 13): increasing day-by-day
[2]; FIG. 2, before and after inhibition of CYP3A by ketoconazole
  difference of time 0 (pre-dose) plasma concentration, Day 17 vs Day 12: ~500 ng/mL
[2]; [8]
  Ratio % Test/Reference, AUC0-24: 138.01%
  Ratio % Test/Reference, Cmax: 127.59%
[3]; 600 mg mifepristone OD + 200 mg ketoconazole BID
  exposures as percent of those observed following the highest labeled dose of mifepristone (1200 mg daily): approximately 85%
[3]; [9]
  Ratio % Test/Ref, AUC0-24: 87.27%
  Ratio % Test/Ref, Cmax: 84.64%
[4]; during the mifepristone-only treatment period (moderate hypertension; moderate bilateral rash)
  discontinuation due to AEs: Two subjects discontinued due to AEs
[4]; during the mifepristone/ketoconazole treatment period
  subjects with at least one TEAE: 57.1%
[4]; during treatment with mifepristone alone (600 mg OD)
  subjects with at least one TEAE: 55.6%
[4]; [10]
  deaths or SAEs: No deaths or SAEs were reported
  severe TEAEs: No severe TEAEs were reported
[5]; 12 subjects
  subjects experiencing at least one treatment emergent adverse event (TEAE): 25%
[5]
  SAE or AE resulting in discontinuation: No subject experienced an SAE or an AE that resulted in discontinuation from the study
  TEAEs considered by the investigator to be related to the drug: No TEAE was considered by the investigator to be related to Mifepristone
  changes in ECG parameters: No clinically significant changes in any ECG parameter
  changes in laboratory test results: Minimal changes in laboratory test results
[6]; geometric mean ratio (AUCinf in text)
  Mean Ratio AUCtotal (C2/C1): 1.05
[6]; geometric mean ratio
  Mean Ratio Cmax (C2/C1): 1.15
[7]; Example 5: mifepristone reduced from 1200 mg to 900 mg daily with ketoconazole
  liver function of the patient: not significantly compromised
[7]; Example 6: mifepristone reduced from 900 mg to 600 mg daily with ketoconazole
  liver function of the patient: not significantly compromised
[7]; Example 7: mifepristone reduced from 600 mg to 300 mg daily with ketoconazole
  liver function of the patient: not significantly compromised
[7]; Example 8: mifepristone reduced from 1500 mg to 1200 mg daily with ketoconazole
  liver function of the patient: not significantly compromised
clinical; 900 mg
  AUC(0-t): 59600 ng·h/mL
  Cmax, Geometric Means: 3550 ng/mL
clinical; 1200 mg
  AUC(0-24), Geometric Means: 67,700
  Cmax: 4360 ng/mL
